Like-named read-outs stand apart in the source and are kept apart here.
Legend:
[1] = target: T1, CCR2 (Homo sapiens, UniProt P41597)
T1 sequence (P41597 1-360 isoform P41597-2): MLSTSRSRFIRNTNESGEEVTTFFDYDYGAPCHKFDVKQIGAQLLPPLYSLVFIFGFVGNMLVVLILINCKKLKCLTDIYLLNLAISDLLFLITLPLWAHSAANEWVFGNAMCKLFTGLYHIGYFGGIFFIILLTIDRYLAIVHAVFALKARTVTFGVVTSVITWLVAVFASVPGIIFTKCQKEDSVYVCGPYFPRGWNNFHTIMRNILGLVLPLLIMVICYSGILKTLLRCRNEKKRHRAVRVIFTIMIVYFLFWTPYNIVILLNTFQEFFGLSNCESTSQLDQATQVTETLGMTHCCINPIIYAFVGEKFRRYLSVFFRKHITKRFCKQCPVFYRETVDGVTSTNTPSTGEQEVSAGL

[2] = test system: THP-1 cells; assay: MCP-1 Induced Chemotaxis in THP-1 Cells; type: cell-based; conditions: Homo sapiens; THP-1 cells, MCP-1 0.01 μg/mL, 3 hours; read-out: Inhibition of MCP-1 Induced Chemotaxis IC50
[3] = test system: THP-1 cells; conditions: Homo sapiens; for IC50: THP-1, read-out: Inhibition of MCP-1 Induced Calcium Ion Influx IC50

Row | SMILES | IC50 [1] [nM] | IC50 [2] [nM] | IC50 [3] [nM] | inhibition at 25 µM ([3]; THP-1, read-out: Inhibition of MCP-1 Induced Calcium Ion Influx, percent inhibition) [%]
1 | O=C(/C=C/c1cc(F)c(F)c(F)c1)N1CCC(C(CO)N2CCC(c3cc[nH]n3)CC2)CC1 (stereo not drawn) [Cpd 156, (2E)-1-(4-{2-hydroxy-1-[4-(1H-pyrazol-3-yl)-piperidin-1-yl]-ethyl}-piperidin-1-yl)-3-(3,4,5-trifluoro-phenyl)-propenone] | 80 | 120 |  | 50
2 | O=C(Nc1cc(F)cc(F)c1)N1CCC(C(CO)N2CCC(c3c[nH]c4ccccc34)CC2)CC1 (stereo not drawn) [Cpd 129, 4-{2-hydroxy-1-[4-(1H-indol-3-yl)-piperidin-1-yl]-ethyl}-piperidine-1-carboxylic acid (3,5-difluoro-phenyl)-amide] | 40 | 80 | 20 | 
3 | COc1ccc(C2CCN(C(CO)C3CCN(C(=O)/C=C/c4ccccc4)CC3)CC2)cc1 (stereo not drawn) [Cpd 159, (2E)-1-(4-{2-hydroxy-1-[4-(4-methoxy-phenyl)-piperidin-1-yl]-ethyl}-piperidin-1-yl)-3-phenyl-propenone] | 270 | 860 | 2100 | 
4 | Cc1cc(C)cc(NC(=O)N2CCC(C(C(=O)O)N3CCC(c4c[nH]c5ccccc45)CC3)CC2)c1 (stereo not drawn) [Cpd 135, [1-(3,5-dimethyl-phenylcarbamoyl)-piperidin-4-yl]-[4-(1H-indol-3-yl)-piperidin-1-yl]-acetic acid] | 940 | 770 | 7100 | 
5 | O=C(/C=C/c1cc(F)c(F)c(F)c1)N1CCC(C(CO)N2CCC(c3c[nH]c4ccccc34)CC2)CC1 (stereo not drawn) [Cpd 112, (2E)-1-(4-{2-hydroxy-1-[4-(1H-indol-3-yl)-piperidin-1-yl]-ethyl}-piperidin-1-yl)-3-(3,4,5-trifluoro-phenyl)-propenone] | 4 | 4 | 0.6 | 
6 | Cc1ccc(NC(=O)N2CCC(C(C(=O)O)N3CCC(c4c[nH]c5ccccc45)CC3)CC2)cc1F (stereo not drawn) [Cpd 105, [1-(3-fluoro-4-methyl-phenylcarbamoyl)-piperidin-4-yl]-[4-(1H-indol-3-yl)-piperidin-1-yl]-acetic acid] | 90 | 10 | 130 | 
7 | COc1cccc2c(C3CCN(C(CO)C4CCN(C(=O)/C=C/c5cc(F)c(F)c(F)c5)CC4)CC3)c[nH]c12 (stereo not drawn) [Cpd 133, (2E)-1-(4-{2-hydroxy-1-[4-(7-methoxy-1H-indol-3-yl)-piperidin-1-yl]-ethyl}-piperidin-1-yl)-3-(3,4,5-trifluoro-phenyl)-propenone] | 10 | 40 | 0.8 | 
8 | O=C(O)c1ccc2[nH]cc(C3CCN(C(C(=O)O)C4CCN(C(=O)/C=C/c5cc(F)c(F)c(F)c5)CC4)CC3)c2c1 (stereo not drawn) [Cpd 147, 3-[1-(carboxy-{1-[(2E)-3-(3,4,5-trifluoro-phenyl)-acryloyl]-piperidin-4-yl}-methyl)-piperidin-4-yl]-1H-indole-5-carboxylic acid] | 150 | 40 | 600 | 
9 | O=C(O)C(C1CCN(C(=O)Nc2cccc(F)c2)CC1)N1CCC(c2c[nH]c3ccccc23)CC1 (stereo not drawn) [Cpd 91, [1-(3-fluoro-phenylcarbamoyl)-piperidin-4-yl]-[4-(1H-indol-3-yl)-piperidin-1-yl]-acetic acid] | 305 | 270 | 890 | 
10 | O=C(/C=C/c1cc(F)cc(F)c1)N1CCC(C(CO)N2CCC(c3c[nH]c4ccccc34)CC2)CC1 (stereo not drawn) [Cpd 116, (2E)-3-(3,5-difluoro-phenyl)-1-(4-{2-hydroxy-1-[4-(1H-indol-3-yl)-piperidin-1-yl]-ethyl}-piperidin-1-yl)-propenone] | 0.6 | 0.4 | 2 | 
11 | COC(=O)c1ccc2[nH]cc(C3CCN(C(C(=O)O)C4CCN(C(=O)/C=C/c5cc(F)c(F)c(F)c5)CC4)CC3)c2c1 (stereo not drawn) [Cpd 146, 3-[1-(carboxy-{1-[(2E)-3-(3,4,5-trifluoro-phenyl)-acryloyl]-piperidin-4-yl}-methyl)-piperidin-4-yl]-1H-indole-5-carboxylic acid methyl ester] | 7 | 53 | 50 | 
12 | O=C(/C=C/c1ccc(F)cc1)N1CCC(C(CO)N2CCC(c3c[nH]c4ccc(F)cc34)CC2)CC1 (stereo not drawn) [Cpd 169, (2E)-1-(4-{1-[4-(5-fluoro-1H-indol-3-yl)-piperidin-1-yl]-2-hydroxy-ethyl}-piperidin-1-yl)-3-(4-fluoro-phenyl)-propenone] | 57 | 55 | 170 | 

More lines, main results first:

Row | IC50 [1] [nM] | IC50 [2] [nM] | IC50 [3] [nM] | SMILES | inhibition at 25 µM ([3]; THP-1, read-out: Inhibition of MCP-1 Induced Calcium Ion Influx, percent inhibition) [%]
13 | 215 | 110 | 70 | CC(=O)OCC(C1CCN(C(=O)/C=C/c2ccc(Cl)c(Cl)c2)CC1)N1CCC(c2c[nH]c3ccccc23)CC1 (stereo not drawn) [Cpd 237, acetic acid 2-{1-[(2E)-3-(3,4-dichloro-phenyl)-acryloyl]-piperidin-4-yl}-2-[4-(1H-indol-3-yl)-piperidin-1-yl]-ethyl ester] | 
14 | 90 | 460 | 20 | CC(=O)NCC(C1CCN(C(=O)/C=C/c2ccc(Cl)c(Cl)c2)CC1)N1CCC(c2c[nH]c3ccccc23)CC1 (stereo not drawn) [Cpd 215] | 
15 | 0.6 | 2 | 0.05 | O=C(/C=C/c1cc(F)c(F)c(F)c1)N1CCC([C@@H](CO)N2CCC(c3c[nH]c4ccccc34)CC2)CC1 [Cpd 187, (2E)-1-(4-{(1S)-2-hydroxy-1-[4-(1H-indol-3-yl)-piperidin-1-yl]-ethyl}-piperidin-1-yl)-3-(3,4,5-trifluoro-phenyl)-propenone] | 
16 | 70 | 90 | 2610 | O=C(/C=C/c1ccc(Cl)c(Cl)c1)N1CCC(C(CO)N2CCC(c3nc4ccccc4[nH]3)CC2)CC1 (stereo not drawn) [Cpd 176, (2E)-1-(4-{1-[4-(1H-benzoimidazol-2-yl)-piperidin-1-yl]-2-hydroxy-ethyl}-piperidin-1-yl)-3-(3,4-dichloro-phenyl)-propenone] | 
17 | 220 | 350 | 170 | O=C(/C=C/c1cc(F)cc(F)c1)N1CCC(C(CO)N2CCC(c3ccc(F)cc3)CC2)CC1 (stereo not drawn) [Cpd 192, (2E)-3-(3,5-difluoro-phenyl)-1-(4-{1-[4-(4-fluoro-phenyl)-piperidin-1-yl]-2-hydroxy-ethyl}-piperidin-1-yl)-propenone] | 
18 | 330 | 350 | 7870 | O=C(/C=C/c1cc(F)cc(F)c1)N1CCC(C(CO)N2CCC(c3ccncc3)CC2)CC1 (stereo not drawn) [Cpd 182, (2E)-3-(3,5-difluoro-phenyl)-1-{4-[2-hydroxy-1-(3,4,5,6-tetrahydro-2H-[4,4′]bipyridinyl-1-yl)-ethyl]-piperidin-1-yl}-propenone] | 
19 | 1 | 3 | 0.6 | CS(=O)(=O)Nc1ccc2[nH]cc(C3CCN(C(CO)C4CCN(C(=O)/C=C/c5cc(F)c(F)c(F)c5)CC4)CC3)c2c1 (stereo not drawn) [Cpd 201, N-{3-[1-(2-hydroxy-1-{1-[(2E)-3-(3,4,5-trifluoro-phenyl)-acryloyl]-piperidin-4-yl}-ethyl)-piperidin-4-yl]-1H-indol-5-yl}-methanesulfonamide] | 
20 | 20 | 30 | 4 | CS(=O)(=O)Nc1ccc2[nH]cc(C3CCN(C(COC(=O)/C=C/c4cc(F)cc(F)c4)C4CCN(C(=O)/C=C/c5cc(F)cc(F)c5)CC4)CC3)c2c1 (stereo not drawn) [Cpd 199, (2E)-3-(3,5-difluoro-phenyl)-acrylic acid 2-{1-[(2E)-3-(3,5-difluoro-phenyl)-acryloyl]-piperidin-4-yl}-2-[4-(5-methanesulfonylamino-1H-indol-3-yl)-piperidin-1-yl]-ethyl ester] | 
